Data published in PMC9573605, “Exploring Nitric Oxide (NO)-Releasing Celecoxib Derivatives as Modulators of Radioresponse in Pheochromocytoma Cells” (Molecules, 2022).

Experiments:
[1] = tested on: MPC-HIF2α tumor spheroids; assay: Spheroid regrowth assay with [177Lu]LuCl3 treatment; type: cell-based, mouse; conditions: 10 µM compound with 0.25 MBq [177Lu]LuCl3 for six days; for 14-day regrowth probability: controls 50%
Description: Radionuclide therapy is a fast-evolving treatment modality gaining more importance in treating cancer. For treatment of pheochromocytomas and paragangliomas, in particular, somatostatin type 2 receptor-targeted radionuclide therapy with [^177Lu]Lu-(Tyr^3)octreotate is currently investigated in clinical controlled trials (e.g., NCT04029428, NCT03923257, NCT03206060). To assess the additional effects of NO-COXIBs on the outcome of Lu-177 therapy, a simplified in vitro setup was used here, where MPC-HIF2α tumor spheroids were treated with 10 µM of the compounds and simultaneously 0.25 MBq of [^177Lu]LuCl3 for six days.
(§1) Genetically modified mouse pheochromocytoma (MPC) cells expressing a codon-optimized Epas1 gene (encoding HIF2α) were cultured as three-dimensional tumor spheroids as published elsewhere. External X-ray beam radiation treatment and [^177Lu]LuCl3 radionuclide treatment was performed as reported previously with some modifications. In brief, spheroids were irradiated with a 200 kV photon beam using a Maxishot X-ray system equipped with a Y.TU/320-D03 tube (YXLON, Hamburg, Germany), growth of spheroids (n = 6) with diameters between 300−400 µm was measured in response to one fixed radiation dose, 15 Gy for X-ray treatment, and 0.25 MBq/mL of [^177Lu]LuCl3 for radionuclide treatment corresponding to a cumulative dose of approximately 2 Gy delivered for 6 days. The applied radiation doses were selected based on the half-maximal spheroid control doses (SCD50) as previously determined for MPC HIF2α spheroids by us. Spheroids were considered as regrown at 100 µm increase in diameter compared to treatment start or at a diameter growth rate of 15 µm per day. Results are reported as spheroid regrowth probability (%).
(§2) Figure 5 Effects of NO-COXIBs on radiation treatments of MPC-HIF2α tumor spheroids. (A) Growth responses to X-ray treatment with a radiation dose of 15 Gy in combination with 10 µM NO-COXIBs added to the medium at indicated time points before or after irradiation. (B) Growth responses to [^177Lu]LuCl3 treatment with an initial activity concentration of 0.25 MBq/mL in combination with NO-COXIBs; log2 fold changes in diameter indicate the number of diameter doublings compared to treatment start; 14-day regrowth probability indicates the fraction of spheroids able to regrow within 14 days after treatment start; (black arrows) time point or duration of radiation treatment; (w/o) vehicle controls are shown as black lines; (Ce) celecoxib.

[2] = tested on: MPC-HIF2α tumor spheroids; assay: Spheroid regrowth assay with external X-ray irradiation; type: cell-based, mouse; conditions: X-ray 15 Gy; 10 µM compound added 2 h post irradiation; controls 83%
Protocol: (§3) As a first pilot study, growth responses of MPC-HIF2α spheroids were investigated after two different radiation treatments such as single-dose external beam irradiation (X-ray) and incubation with [^177Lu]LuCl3, respectively. NO-COXIBs were tested at 10 µM for additional effects on radiation treatments against a vehicle-treated control (w/o) and celecoxib (Ce).
The log2-fold change in spheroid diameter is given as a standardized parameter for spheroid growth, which is positive for growing, near zero for stagnating and negative for shrinking spheroids. Furthermore, regrowth probabilities are given as a parameter to compare how many of the overall studied spheroids in one group recovered within 14 days. Radioprotective effects occurred when compounds were added 2 h before irradiation. In this setup, all compounds accelerated the increase in spheroid size during the regrowth phase compared to controls (Figure 5A, upper panel). Regrowth probabilities of 67–100% under NO-COXIB treatment remained however similar to controls (83%). Radiosensitizing effects occurred when compounds were added 2 h post irradiation. In this setup, all compounds decelerated the increase in spheroid size during the regrowth phase compared to controls.
as §1, §2

[3] = set-up: method as in PMID 25547413; conditions: cited from earlier work
MPC-HIF2a spheroids = assay: Growth of non-irradiated tumor spheroids; type: cell-based, mouse; conditions: 10 µM compound, linear regression between 0 and 9 days
Protocol: as §3
4. Growth-rate of tumor spheroids in the presence of NO -COXIBS without radiation treatment
Compound Diameter growth rate
Table S2. Effects of NO-COXIBs on spheroid growth; diameter growth rates of non-irradiated MPC-HIF2a spheroids in presence of 10 µM of compounds determined from linear regression between 0 and 9 days after treatment start; (w/o) vehicle control treated with DMSO

A2058 cells = tested on: A2058 cells; set-up: method as in PMID 26081289; conditions: 10 µM, DMSO control 6.6 Gy; cited from earlier work
[4] = Fluorometric NO release assay (Griess assay); type: physicochemical; conditions: 24 h, 37 °C, relative to initial molar amount of compound
Protocol: The nitric oxide releasing properties of the nitroester-derivatives 5a–d, 5f, and 6a–d were evaluated using a fluorometric Griess assay in the presence and absence of cysteine to determine thiol-dependent and spontaneous release of nitric oxide (Figure 3).
Nitric oxide release of compounds within 24 h at 37 °C was measured using the fluorometric nitric oxide microplate assay kit ab65327 (Abcam, Cambridge, UK). For measurement of spontaneous release, 1.8 nmol of compounds were incubated in 75 µL Dulbecco’s PBS containing 0.05% v/v residual DMSO and 2.5 mM DTPA (pH = 7.1) for 24 h at 37 °C. Thiol-dependent release was measured accordingly in presence of 2.5 mM cysteine. Two series of nitrate standards were prepared (0.2−1 nmol) in 75 µL incubation buffer, in presence or absence of cysteine, respectively. According to the manufacturer’s instructions, all nitrate content in samples and standards was enzymatically converted into nitrite through incubation with nitrate reductase for 2 h at room temperature, and the resulting nitrite content (total nitric oxide) was determined through reaction with 2,3-diaminonaphthalene followed by measurement of fluorescence intensity at λex/em = 360/450 nm using a microplate reader. Nitrite content in samples was calculated from linear regression of standards and expressed as relative nitric oxide release (%) normalized to the initial molar amount of compound. NONOate served as positive control.
Figure 3 Spontaneous and thiol-dependent NO^• release from NO-COXIBs; measured using fluorometric Griess assay (n = 2); relative release indicates the percentage of soluble nitrogen species (nitrate + nitrite) detected in the incubation buffer after 24 h compared to the initial molar amount of compounds; NO^• release of NONOate (positive control) exceeded the maximum detection limit; data presented as mean ± range.

[5] = Lipophilicity logD7.4 by HPLC method; type: physicochemical; conditions: HPLC retention on ODP-50 4B column (Shodex Asahipak), phosphate buffer pH 7.4
Protocol: The lipophilicity of all synthesized compounds was determined as logD7.4, HPLC value by an HPLC method originally described by Donovan and Pescatore.
The logD7.4HPLC value was determined as previously reported by us utilizing an HPLC method originally described by Donovan and Pescatore.

Mel-Juso cells = tested on: Mel-Juso cells; set-up: method as in PMID 26081289; conditions: 10 µM, DMSO control 4.2 Gy; cited from earlier work

Row | SMILES | 14-day regrowth probability [1] | 14-day regrowth probability [2] [%] | scavenging effects on OH•, O2•−, and OCl- [3] | Diameter growth rate ± SEM (MPC-HIF2a spheroids) [µm/day] | required radiation dose for 10% survival (A2058 cells) [Gy] | growth response (spheroid size) ([1]; compared to controls) | thiol-dependent NO release ([4]; 2.5 mM cysteine) | spontaneous NO release ([4]; absence of cysteine) | chromatographic logD [5] | required radiation dose for 10% survival (Mel-Juso cells) [Gy]
1 | Cc1ccc(-c2cc(C(F)(F)F)nn2-c2ccc(S(N)(=O)=O)cc2)cc1 [celecoxib] | 40% | 0 | did not show any scavenging effects | 57.3 ± 4.0 | – | – | – | – | – | –
2 | Cc1ccc(-c2c(Cl)c(CO[N+](=O)[O-])nn2-c2ccc(S(N)(=O)=O)cc2)cc1 [5a, [4-Chloro-1-(4-sulfamoylphenyl)-5-(p-tolyl)-1H-pyrazol-3-yl]methyl nitrate] | 60–80% | 17 | – | 54.1 ± 5.2 | 5.2 | prevented spheroids from shrinking in size | 29–53% | 10–22% | 3.76 | 3.2
